Data set [1] is described as follows: Half life in CD-1 mouse at 5 mg/kg, po. Type of data set: ADME, organism-based. Set-up: dose 5 mg/kg, route oral. As to conditions: in vivo.
In data set [2] the target is T1, Serine/threonine-protein kinase TBK1 (Homo sapiens, UniProt Q9UHD2).
T1 sequence (Q9UHD2 whole entry): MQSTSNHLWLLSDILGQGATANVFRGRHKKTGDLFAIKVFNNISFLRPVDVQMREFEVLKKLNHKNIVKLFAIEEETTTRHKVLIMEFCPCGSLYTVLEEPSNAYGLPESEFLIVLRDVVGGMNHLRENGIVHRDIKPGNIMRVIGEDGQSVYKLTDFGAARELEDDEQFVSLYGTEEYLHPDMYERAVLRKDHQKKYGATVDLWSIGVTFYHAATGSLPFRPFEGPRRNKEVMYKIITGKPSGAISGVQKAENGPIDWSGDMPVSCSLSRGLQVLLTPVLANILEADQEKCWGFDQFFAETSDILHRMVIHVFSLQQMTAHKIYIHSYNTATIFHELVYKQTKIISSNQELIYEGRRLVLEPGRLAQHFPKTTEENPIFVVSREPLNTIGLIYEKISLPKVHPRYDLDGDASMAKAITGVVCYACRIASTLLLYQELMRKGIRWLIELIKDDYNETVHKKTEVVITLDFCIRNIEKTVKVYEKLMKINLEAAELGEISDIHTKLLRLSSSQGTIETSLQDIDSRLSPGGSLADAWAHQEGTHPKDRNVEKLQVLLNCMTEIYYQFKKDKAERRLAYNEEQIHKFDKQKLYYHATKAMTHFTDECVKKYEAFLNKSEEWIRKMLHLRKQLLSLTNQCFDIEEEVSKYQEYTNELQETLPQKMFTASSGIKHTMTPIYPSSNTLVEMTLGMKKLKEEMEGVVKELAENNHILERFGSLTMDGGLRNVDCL
The data set can be described thus: Inhibition of TBK1 by radiometry.

The target of a further data set is Aurora kinase B (Homo sapiens, UniProt Q96GD4). The data set can be described thus: Inhibition of Aurora B.
In data set [3] the target is T2, Serine/threonine-protein kinase BRSK2 (Homo sapiens, UniProt Q8IWQ3).
T2 sequence (Q8IWQ3 whole entry): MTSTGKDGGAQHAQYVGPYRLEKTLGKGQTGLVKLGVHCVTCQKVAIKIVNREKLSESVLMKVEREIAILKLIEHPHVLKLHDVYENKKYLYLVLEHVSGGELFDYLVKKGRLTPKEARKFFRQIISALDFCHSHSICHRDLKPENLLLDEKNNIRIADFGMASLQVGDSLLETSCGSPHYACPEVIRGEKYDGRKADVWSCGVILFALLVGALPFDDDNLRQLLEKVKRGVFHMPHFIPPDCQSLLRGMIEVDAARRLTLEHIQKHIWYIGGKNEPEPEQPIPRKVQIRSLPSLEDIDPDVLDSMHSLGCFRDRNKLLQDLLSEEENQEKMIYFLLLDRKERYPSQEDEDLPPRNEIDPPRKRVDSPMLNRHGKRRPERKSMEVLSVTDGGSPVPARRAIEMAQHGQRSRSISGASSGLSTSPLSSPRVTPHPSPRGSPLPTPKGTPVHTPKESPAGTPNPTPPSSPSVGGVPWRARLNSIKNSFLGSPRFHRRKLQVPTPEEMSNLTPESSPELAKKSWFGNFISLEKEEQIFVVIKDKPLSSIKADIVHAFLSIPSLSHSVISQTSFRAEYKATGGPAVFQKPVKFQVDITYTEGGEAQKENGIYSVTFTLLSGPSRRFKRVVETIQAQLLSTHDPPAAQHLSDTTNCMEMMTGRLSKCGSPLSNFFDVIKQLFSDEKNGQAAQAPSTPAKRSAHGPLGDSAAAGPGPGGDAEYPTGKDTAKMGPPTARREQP
The data set can be described thus: Inhibition of BRSK2.

The nature of data set [4]: Permeability from apical to basolateral side of human Caco2 cells. Type of data set: ADME, cell-based. As to conditions: Caco-2, read-out: permeability.
In data set [5] the test system is Mus musculus. Description: Toxicity in mouse at >= 20 mg/kg, ip. The class given is organism-based. Set-up: dose 20 mg/kg, route intraperitoneal. To be noted: in vivo.
Data set [6] is described as follows: Oral bioavailability in CD-1 mouse at 5 mg/kg. Type of data set: ADME, organism-based. As to conditions: in vivo.
Data set [7] is described as follows: Metabolic stability in mouse liver microsomes assessed as compound turnover after 30 mins. The class given is ADME, Microsome. To be noted: read-out: Drug metabolism. Background: Liver microsomes are vesicles of endoplasmic reticulum, rich in cytochrome P450 enzymes.
The target of data set [8] is T3, Serine/threonine-protein kinase TBK1 (Mus musculus, UniProt Q9WUN2).
T3 sequence (Q9WUN2 whole entry): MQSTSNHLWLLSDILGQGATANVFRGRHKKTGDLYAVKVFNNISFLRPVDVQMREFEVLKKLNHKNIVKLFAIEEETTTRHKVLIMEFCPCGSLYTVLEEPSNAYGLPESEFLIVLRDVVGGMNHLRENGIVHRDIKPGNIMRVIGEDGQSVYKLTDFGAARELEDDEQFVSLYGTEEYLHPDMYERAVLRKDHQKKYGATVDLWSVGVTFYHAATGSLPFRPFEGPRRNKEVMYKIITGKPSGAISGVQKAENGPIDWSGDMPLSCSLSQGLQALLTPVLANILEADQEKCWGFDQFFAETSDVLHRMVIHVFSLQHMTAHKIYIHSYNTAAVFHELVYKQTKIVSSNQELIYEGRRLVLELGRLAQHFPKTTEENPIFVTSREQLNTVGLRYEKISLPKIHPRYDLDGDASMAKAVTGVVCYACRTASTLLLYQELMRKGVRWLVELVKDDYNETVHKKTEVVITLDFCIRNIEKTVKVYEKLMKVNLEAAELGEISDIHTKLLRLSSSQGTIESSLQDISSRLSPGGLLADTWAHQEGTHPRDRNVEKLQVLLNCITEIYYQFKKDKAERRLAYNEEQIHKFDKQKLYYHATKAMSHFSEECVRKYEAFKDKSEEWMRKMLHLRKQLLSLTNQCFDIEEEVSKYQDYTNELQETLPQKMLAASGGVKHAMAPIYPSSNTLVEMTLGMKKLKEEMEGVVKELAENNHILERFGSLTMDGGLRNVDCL
The data set can be described thus: Inhibition of TBK1-mediated RANTES release in LPS-stimulated mouse RAW264.7 cells compound incubated for 30 mins prior LPS challenge measured after 6 hrs by ELISA. The class given is cell-based. As to conditions: read-out: IC50. For orientation: An ELISA detects its analyte on a solid surface through an enzyme-linked reagent.

Data set [9] in a line: Volume of distribution in CD-1 mouse at 1 mg/kg, iv. The class given is ADME, organism-based. More on the design: dose 1 mg/kg, route intravenous. As to conditions: in vivo.
The nature of data set [10]: Clearance in CD-1 mouse at 1 mg/kg, iv. The class given is ADME, organism-based. Set-up: dose 1 mg/kg, route intravenous. As to conditions: in vivo.
The nature of data set [11]: Half life in CD-1 mouse at 1 mg/kg, iv. Type of data set: ADME, organism-based. More on the design: dose 1 mg/kg, route intravenous. To be noted: in vivo.
In data set [12] the target is Cyclin-dependent kinase 2 (Homo sapiens, UniProt P24941). The data set can be described thus: Inhibition of CDK2.
A short description of data set [13]: Inhibition of VEGFR.
Data set [14] is described as follows: Inhibition of AMPK.
Data set [15] deals with Mus musculus. Description: Antiinflammatory activity in mouse assessed as inhibition of LPS-induced IFN-beta production at 15 mg/kg, ip administered 30 mins prior LPS challenge measured 1 hr post challenge by ELISA. The class given is functional, organism-based. Set-up: dose 15 mg/kg.
In data set [16] the target is T4, Inhibitor of nuclear factor kappa-B kinase subunit epsilon (Homo sapiens, UniProt Q14164).
T4 sequence (Q14164 whole entry): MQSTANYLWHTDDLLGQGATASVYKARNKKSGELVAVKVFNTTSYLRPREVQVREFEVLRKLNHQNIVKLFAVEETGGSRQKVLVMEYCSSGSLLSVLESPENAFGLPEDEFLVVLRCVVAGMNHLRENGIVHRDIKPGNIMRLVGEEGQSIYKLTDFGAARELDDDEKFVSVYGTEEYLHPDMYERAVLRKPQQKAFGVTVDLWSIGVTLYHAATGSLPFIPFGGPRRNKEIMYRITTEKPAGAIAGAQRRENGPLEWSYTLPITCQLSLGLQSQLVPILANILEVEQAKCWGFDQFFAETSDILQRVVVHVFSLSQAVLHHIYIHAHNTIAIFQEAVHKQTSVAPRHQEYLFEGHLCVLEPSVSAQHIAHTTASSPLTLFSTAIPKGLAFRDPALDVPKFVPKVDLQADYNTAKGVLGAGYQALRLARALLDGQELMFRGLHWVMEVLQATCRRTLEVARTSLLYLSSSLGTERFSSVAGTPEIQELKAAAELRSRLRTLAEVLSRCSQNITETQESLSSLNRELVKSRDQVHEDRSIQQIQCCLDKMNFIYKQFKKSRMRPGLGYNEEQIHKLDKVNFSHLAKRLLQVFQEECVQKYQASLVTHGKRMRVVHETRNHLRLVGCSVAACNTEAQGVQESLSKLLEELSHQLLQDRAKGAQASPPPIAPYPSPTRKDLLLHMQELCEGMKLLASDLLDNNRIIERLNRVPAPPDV
The data set can be described thus: Inhibition of IKKepsilon.

A short description of data set [17]: Efflux ratio of permeability from basolateral to apical side to apical to basolateral side in human Caco2 cells. The class given is ADME, cell-based. To be noted: Caco-2. (Caco-2 monolayers are a common model of the intestinal barrier.)
In data set [18] the target is MAP kinase-interacting serine/threonine-protein kinase 1 (Homo sapiens, UniProt Q9BUB5). The data set can be described thus: Inhibition of MNK1.
Data set [19] is described as follows: Metabolic stability in human liver microsomes assessed as compound turnover after 40 mins. The class given is ADME, Microsome. As to conditions: read-out: Drug metabolism.
The target in data set [20] is MAP/microtubule affinity-regulating kinase 3 (Homo sapiens, UniProt P27448). Description: Inhibition of MARK3.

SMILES strings stand for the structures. Active and inactive are the calls of the source. The rule behind the calls is not given here.

Sequence of Aurora kinase B (Q96GD4 whole entry): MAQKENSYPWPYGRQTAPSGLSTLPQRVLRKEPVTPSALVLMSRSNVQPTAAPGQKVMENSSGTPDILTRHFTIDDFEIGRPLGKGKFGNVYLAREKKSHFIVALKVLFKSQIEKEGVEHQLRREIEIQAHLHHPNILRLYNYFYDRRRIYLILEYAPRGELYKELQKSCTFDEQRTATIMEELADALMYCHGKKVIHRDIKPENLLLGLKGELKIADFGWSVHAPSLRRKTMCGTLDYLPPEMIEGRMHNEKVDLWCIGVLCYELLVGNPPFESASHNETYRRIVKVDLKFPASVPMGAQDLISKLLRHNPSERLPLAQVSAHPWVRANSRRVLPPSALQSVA
Sequence of MAP/microtubule affinity-regulating kinase 3 (P27448 whole entry): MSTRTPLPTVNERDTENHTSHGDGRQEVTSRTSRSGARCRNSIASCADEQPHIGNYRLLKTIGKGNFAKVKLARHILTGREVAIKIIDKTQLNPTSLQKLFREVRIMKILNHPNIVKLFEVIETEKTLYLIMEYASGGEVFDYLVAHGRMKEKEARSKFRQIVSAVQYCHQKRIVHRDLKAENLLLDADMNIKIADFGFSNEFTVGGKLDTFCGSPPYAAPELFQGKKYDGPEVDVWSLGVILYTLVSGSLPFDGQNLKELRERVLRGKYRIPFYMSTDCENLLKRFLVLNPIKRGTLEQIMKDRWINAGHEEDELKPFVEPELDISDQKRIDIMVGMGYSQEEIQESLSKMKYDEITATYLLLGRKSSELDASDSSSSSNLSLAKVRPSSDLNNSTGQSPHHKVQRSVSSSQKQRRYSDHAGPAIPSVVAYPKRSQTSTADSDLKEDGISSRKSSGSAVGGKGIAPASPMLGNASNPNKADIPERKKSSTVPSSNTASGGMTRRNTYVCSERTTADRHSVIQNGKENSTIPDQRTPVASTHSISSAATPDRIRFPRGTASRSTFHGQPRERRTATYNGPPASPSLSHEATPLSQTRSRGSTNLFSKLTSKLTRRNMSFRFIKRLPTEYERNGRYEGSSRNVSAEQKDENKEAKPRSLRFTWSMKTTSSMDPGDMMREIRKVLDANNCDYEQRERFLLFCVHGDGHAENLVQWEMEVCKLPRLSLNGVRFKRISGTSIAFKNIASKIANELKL
Sequence of MAP kinase-interacting serine/threonine-protein kinase 1 (Q9BUB5 whole entry): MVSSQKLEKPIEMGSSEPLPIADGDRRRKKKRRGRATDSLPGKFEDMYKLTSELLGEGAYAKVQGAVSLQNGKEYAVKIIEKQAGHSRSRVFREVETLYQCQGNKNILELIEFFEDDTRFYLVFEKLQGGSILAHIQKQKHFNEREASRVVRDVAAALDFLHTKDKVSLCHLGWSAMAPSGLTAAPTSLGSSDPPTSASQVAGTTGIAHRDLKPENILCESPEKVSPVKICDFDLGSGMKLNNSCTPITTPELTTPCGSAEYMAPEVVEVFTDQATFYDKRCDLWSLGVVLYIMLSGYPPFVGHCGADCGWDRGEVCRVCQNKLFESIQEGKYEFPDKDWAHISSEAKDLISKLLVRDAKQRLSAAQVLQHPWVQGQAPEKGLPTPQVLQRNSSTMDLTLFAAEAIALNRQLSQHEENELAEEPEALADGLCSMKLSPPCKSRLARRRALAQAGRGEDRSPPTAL

For `Cn1cc(Nc2ncc(C3CC3)c(NCCCNC(=O)C3CCC3)n2)cn1`, the half-life (as a rule, how long it takes for the measured level to halve) in data set [1] is 75 min; in data set [11], 27 min. Moreover, the IC50 (usually the concentration at which inhibition is half-maximal) in data set [2] worked out at 0.008 µM; at Aurora kinase B it was 0.19 µM; in data set [3] it was 3.7 µM; in data set [8], 0.17 µM; in [12] it was 0.11 µM; in [13] it was 1.4 µM. Further, the IC50 in data set [14] amounted to 1.8 µM; in data set [16] it was 0.1 µM; in [18], 20 µM; in data set [20], 0.02 µM. Also, in data set [4], the Papp A→B amounted to 74 nm/s. Also, in the data set with Mus musculus [5], the Activity entry was “Toxic”. In addition, in [6], the bioavailability (commonly dose-corrected exposure relative to a reference, in per cent) turned out to be 25%. Further, the metabolised at 0.5 h in [7] came out at 21%. Moreover, the Vd (usually a proportionality between amount in the body and measured concentration, not a real space) in [9] is 1.79 L/kg. Further, the clearance (commonly the rate of elimination divided by the concentration) in [10] was found to be 4.74 L/h/kg. Besides, the inhibition entry in the data set with Mus musculus [15] was “Active”. Also, the efflux ratio (as a rule, a quotient of directional permeabilities that is used to spot active efflux) in data set [17] worked out at 8. For the same molecule, in data set [19], the metabolised at 40 min was 0%.

Source of the values: ChEMBL document CHEMBL2203069, “Synthesis and structure-activity relationships of a novel series of pyrimidines as potent inhibitors of TBK1/IKKε kinases” (Bioorg Med Chem Lett, 2012).
